PubChem BioAssay (NCI)
Several values for one entry are separate records, joined by “and”; a condition that tells them apart may be missing. Equal values may be shown once.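 48-hour exposure; five concentrations; linearly interpolated endpoints. Here, GI50 denotes the concentration required for 50% inhibition of growth. TGI denotes the concentration required for complete inhibition of growth.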

Assays:
Assay in all cases: NCI tumour cell line growth inhibition, 48 h
TK-10 renal = tested on: TK-10 renal
RXF 393 renal = tested on: RXF 393 renal
MDA-MB-231 breast = tested on: MDA-MB-231 breast
CAKI-1 renal = tested on: CAKI-1 renal
HCT-15 colon = tested on: HCT-15 colon
SK-MEL-5 melanoma = tested on: SK-MEL-5 melanoma
HCC-2998 colon = tested on: HCC-2998 colon
MOLT-4 leukemia = tested on: MOLT-4 leukemia
SNB-75 CNS = tested on: SNB-75 CNS
A498 renal = tested on: A498 renal

Compound | GI50 (TK-10 renal) | TGI (TK-10 renal) | GI50 (RXF 393 renal) | TGI (RXF 393 renal) | GI50 (MDA-MB-231 breast) | TGI (MDA-MB-231 breast) | GI50 (CAKI-1 renal) | TGI (CAKI-1 renal) | GI50 (HCT-15 colon) | TGI (HCT-15 colon) | GI50 (SK-MEL-5 melanoma) [µM] | TGI (SK-MEL-5 melanoma) [µM] | GI50 (HCC-2998 colon) | TGI (HCC-2998 colon) | GI50 (MOLT-4 leukemia) | TGI (MOLT-4 leukemia) | GI50 (SNB-75 CNS) | TGI (SNB-75 CNS) | GI50 (A498 renal) | TGI (A498 renal)
C[C@@H]1CN2[C@H]3[C@@H]1CC[C@]31CCC(=O)O[C@]1(C)[C@H]1CC[C@H]3CCC=C3[C@@H]12 | > 30 µM | > 30 µM | > 30 µM | > 30 µM | > 30 µM | > 30 µM | > 30 µM | > 30 µM | > 30 µM | > 30 µM | > 30 | > 30 | > 30 µM | > 30 µM | > 30 µM | > 30 µM | > 30 µM | > 30 µM | > 30 µM | > 30 µM
CS(=O)(=O)OCCN(CCOS(C)(=O)=O)c1ccc(C=Nc2ccc(-c3csc(COc4ccccc4)n3)cc2)cc1 |  | 12.5 µM |  | 1.85 µM |  | 42.7 µM |  | 4.18 µM |  | 22.4 µM |  | 23.9 |  | 7.59 µM |  | 15.6 µM |  | 11.6 µM |  | 7.48 µM
CCCCn1c(=O)[nH]c(N)c([C@@H]2c3c([nH]c(=O)n(CCCC)c3=O)Oc3ccc4ccccc4c32)c1=O | 2.95 µM | 7.05 µM | 2.17 µM | 4.27 µM | 1.85 µM | 4.58 µM | 1.62 µM | 3.26 µM | 1.67 µM | 3.41 µM | 3.06 | 10.7 | 1.67 µM | 3.47 µM | 0.35 µM | 1.74 µM | 1.71 µM | 9.62 µM | 13.7 µM | 27.8 µM
O=C1C=C(Nc2ccccc2)c2ccccc2C1=O | 2.86 µM | 7.75 µM | 2.53 µM | 8.77 µM | 1.88 µM | 7.61 µM | 3.11 µM | 13.7 µM | 1.77 µM | 3.98 µM | 1.7 | 3.12 | 2.02 µM | 4.62 µM | 2.87 µM | 9.47 µM | 1.32 µM | 2.67 µM | 1.96 µM | 5.26 µM
O=c1[nH]c2ccccc2n1C1CCNCC1 | > 100 µM | > 100 µM | > 100 µM | > 100 µM | > 100 µM | > 100 µM | > 100 µM | > 100 µM | > 100 µM | > 100 µM | > 100 | > 100 | > 100 µM | > 100 µM | > 100 µM | > 100 µM | > 100 µM | > 100 µM | 24.4 µM | > 100 µM
COc1cc(/C=C/C(=O)c2cccc(-n3cc(-c4ccccc4)[nH]c3=O)c2)cc(OC)c1OC | 3.02 µM | 9.35 µM | 1.71 µM | 3.53 µM | 2.17 µM | 6.18 µM | 1.75 µM | 4.57 µM | 1.13 µM | 5.7 µM | 1.4 | 2.69 | 1.26 µM | 2.51 µM | 1.8 µM | > 100 µM | 4.47 µM | 16.8 µM | 2.65 µM | 6.63 µM
O=P1(NCCCl)OCCCN1CCCl (stereo not drawn) |  | > 500 µM |  | 445 µM |  | > 500 µM |  | 341 µM |  | 429 µM |  | 429 |  | 427 µM |  | 391 µM |  | 435 µM |  | 462 µM
Cc1ccc(NC(=O)c2ccc(CN3CCN(C)CC3)cc2)cc1Nc1nc(-c2cccnc2)cs1 | 16.8 µM and > 10 µM | 30.6 µM and > 10 µM | 2.98 µM and 1.9 µM | 8.41 µM and 4 µM | 11.1 µM and 4.43 µM | 29.2 µM and > 10 µM | 11.6 µM and > 10 µM | 24.9 µM and > 10 µM | 4.52 µM and 3.18 µM | 19.5 µM and > 10 µM | 2.46 | 9.32 | 11.8 µM and > 10 µM | 26 µM and > 10 µM | 3.11 µM and 2.67 µM | 18.3 µM and 9.64 µM | 14.8 µM and 7.43 µM | 28.5 µM and > 10 µM | 16 µM and > 10 µM | 29.6 µM and > 10 µM
CC1CCCCCC(=O)c2c(O)cc(O)cc2CC(=O)O1 (stereo not drawn) |  | > 100 µM |  | > 100 µM |  | > 100 µM |  | > 100 µM |  | > 100 µM |  | > 100 |  | > 100 µM |  | > 100 µM |  | > 100 µM |  | > 100 µM
O=[N+]([O-])c1ccc(C2=NCCO2)cc1 | > 100 µM | > 100 µM | > 100 µM | > 100 µM | > 100 µM | > 100 µM | > 100 µM | > 100 µM | > 100 µM | > 100 µM | > 100 | > 100 | > 100 µM | > 100 µM | > 100 µM | > 100 µM | > 100 µM | > 100 µM | > 100 µM | > 100 µM
Cn1ncnc1[C@@H]1c2n[nH]c(=O)c3cc(F)cc(c23)N[C@H]1c1ccc(F)cc1 | > 100 µM | > 100 µM | > 100 µM | > 100 µM | > 100 µM | > 100 µM | 91.5 µM | > 100 µM | > 100 µM | > 100 µM | > 100 | > 100 | > 100 µM | > 100 µM | > 100 µM | > 100 µM | > 100 µM | > 100 µM | > 100 µM | > 100 µM
C/C(=C\C(=O)O[C@H]1[C@@H]2[C@H](C)CC[C@H]2[C@]2(C)O[C@@]1(C1CCCCC1)C[C@H]2OC(=O)CO)c1ccccc1 | 7.6 µM | 14.7 µM | 0.0798 µM | 7.12 µM | 6.67 µM | 13 µM | 0.0235 µM | 5.01 µM | 6.81 µM | 13 µM | 6.45 | 11.9 | 7.32 µM | 14.4 µM | 6.42 µM | 13.6 µM | 0.331 µM | 7.21 µM | 0.0164 µM | 0.114 µM
CCC(=C(c1ccc(OCCN2CCCCC2)cc1)c1ccc(OCCN2CCCCC2)cc1)c1ccc(Cl)cc1 | > 16.7 µM | > 16.7 µM | 3.08 µM | 16.6 µM | 5.35 µM | > 16.7 µM | 5.74 µM | > 16.7 µM | 1.05 µM | > 16.7 µM | 2.83 | 5.3 | 2.8 µM | > 16.7 µM | 2.77 µM | > 16.7 µM | > 16.7 µM | > 16.7 µM | > 16.7 µM | > 16.7 µM
CC(=O)/C(=C\c1ccc(Cl)cc1)c1ccccc1 | 2.76 µM | > 66.6 µM | 0.0579 µM |  | 0.212 µM | > 100 µM | 0.549 µM | > 100 µM | 0.331 µM | > 100 µM | 0.0818 | 1.14 | 0.328 µM | > 68.9 µM | 0.124 µM | > 100 µM | 0.0691 µM | > 100 µM | 0.0309 µM | 0.378 µM
C[N+]1([O-])C2CCC1CC(OC(=O)C(CO)c1ccccc1)C2 (stereo not drawn) |  | > 100 µM |  | > 100 µM |  | > 100 µM |  | > 100 µM |  | > 100 µM |  | > 100 |  | > 100 µM |  | > 100 µM |  | > 100 µM |  | > 100 µM
Cc1ccc(N)c(S)c1 |  | 43.1 µM |  | 30.8 µM |  | 31.3 µM |  | 85 µM |  | 30.4 µM |  | 30.6 |  | 88.1 µM |  | 47 µM |  | 40.5 µM |  | 38.6 µM
C=C(CO)C(=O)OC1CC(=C)C2CC(O)C(C)C2C2OC(=O)C(=C)C12 (stereo not drawn) |  | 33.2 µM |  | 36.4 µM |  | 36.2 µM |  | 36.6 µM |  | 35 µM |  | 50.9 |  | 40.9 µM |  | 64.6 µM |  | 45.6 µM |  | > 100 µM
Nc1c(C(=O)Nc2cccc(Cl)c2)sc2nc3c(cc12)C(=O)CCC3 | 36.7 µM | > 100 µM | 0.479 µM | > 42.2 µM | 1.88 µM | > 100 µM | 0.438 µM | > 100 µM | 0.411 µM | > 100 µM | 0.141 | > 100 | 0.849 µM | > 100 µM | > 100 µM | > 100 µM | 0.227 µM | 2.47 µM | 0.134 µM | 
